Results on 62 compounds are retold here after PubChem BioAssay AID1508591.

SMILES strings stand for the structures.

The conditions of this data set: rat; liver microsomes; pH 7.4; 15.0 min; 1.0 µM.
The compound `Cc1cc(NS(=O)(=O)c2ccc(NC(=O)Cc3ccc(F)c(Cl)c3)cc2)no1` came in with a half-life of more than 30 min. Take `Cn1ccc2c(C(=O)NCc3cccnc3)nc(-c3ccccc3C#N)cc21`: the half-life stood at 5.52 min. Turning to `Cn1nc(-c2ccccc2F)c2cc(C(=O)Nc3cc(F)ccc3F)sc21`, the half-life was found to be 26.2 min. As to `O=S(=O)(Nc1cccc2ccncc12)c1ccc(NCc2cccc(Cl)c2O)cc1`, the half-life was found to be 9.9 min.

`FC(F)(F)c1cccc(N2CCN(C(=S)Nc3ccccn3)CC2)c1`: the half-life worked out at 15.5 min. The same measure for `O=C(O)CCNc1cc(N2CCc3ccccc3CC2)nc(-c2ccccn2)n1`: more than 30 min; for `CCOc1ccc(CCNC(=O)c2cc3cccnc3n2Cc2cccc(C)c2)cc1OCC`: 1.7 min.

With `Cc1ccc(-c2cc(C(=O)Nc3ccc(S(N)(=O)=O)cc3)c3cccc(C)c3n2)cc1C`, the half-life was more than 30 min.

Regarding `Cc1noc([C@@H]2CN(C(=O)c3nn(C)c4ccccc34)C[C@H]2CO)n1`, the half-life is more than 30 min. Compound `Cc1ccccc1C(=O)N1CCc2cc(N3CCC(NC(=O)Cc4ccccc4)C3)ccc21` (configuration not stated) registered a half-life of 11 min. As for `Nc1nc2c(s1)C(c1cccc(F)c1F)CC(=O)N2` (configuration not stated), the half-life is more than 30 min. Take `O=C1CCCC2=C1C(c1[nH]ncc1Cl)N=C(Nc1nc3cc([S+](=O)([O-])N4CCOCC4)ccc3o1)N2` (configuration not stated): the half-life stood at 9.4 min. Consider `Cc1ccnc(NC(=O)C2CC(=O)N(c3n[nH]c4cc(Br)ccc34)C2)c1` (configuration not stated), for which the half-life was more than 30 min. `COc1cccc(CNc2ccc(S(=O)(=O)Nc3ncc(-c4ccccc4)s3)cc2)c1O` came in with a half-life of more than 30 min. For the compound `O=C1CCCC2=C1C(c1[nH]ncc1Cl)N=C(Nc1nc3ccc(Cl)cc3o1)N2` (configuration not stated), the half-life is 10 min. `O=C1CCCC2=C1C1(CCSCC1)N=C(Nc1nc3ccccc3o1)N2` gave a half-life of 2.3 min.

The compound `CC(=O)O[C@H]1CC[C@]2(C)C(=CC[C@H]3[C@H]4C[C@H]5O[C@]6(CC[C@H](C)CN6)[C@H](C)[C@@H]5[C@]4(C)CC[C@@H]32)C1` came in with a half-life of 1.58 min. The compound `Cc1ccc(S(=O)(=O)Nc2cnccc2C(=O)Nc2ccc(-n3cncn3)cc2)cc1` showed a half-life of 21 min. On to `O=[S+]([O-])(Nc1ccc(N2CCNCC2)cc1)c1ccc(NCc2cccc(Cl)c2O)cc1`, for which the half-life is more than 30 min. Take `Cc1cc(-c2nnc3n2CCCCC3)c(C)n1-c1ccc(Cl)c(Cl)c1`: the half-life was 1.9 min. The compound `COc1ccc2oc(NC3=NC(c4[nH]ncc4Cl)C4=C(CCCC4=O)N3)nc2c1` (configuration not stated) yielded a half-life of 14.2 min. With `Cc1ccnc(NC(=S)N2CCCC(Nc3cccc(C(F)(F)F)c3)C2)c1` (configuration not stated), the half-life turned out to be 11 min. Turning to `COc1cccc(C(=O)Nc2cccc(OCc3cc(=O)n4cccc(C)c4n3)c2)c1`, the half-life is 3.17 min. `CNC(=O)c1nn(C)c2c1C(C)(C)Cc1cnc(Nc3ccc(N4CCN(C)CC4)cc3)nc1-2` gave a half-life of more than 30 min. The same measure for `C[C@@H](O)CNC(C)(C)CC(=O)N[C@@H]1CCc2ccccc2N(Cc2ccc(-c3ccccc3-c3nn[nH]n3)cc2)C1=O`: more than 30 min; for `COC(=O)CNC(=O)c1nc(-c2ccc(Cl)nc2)c2cnccn12`: 16.4 min. For the compound `Nc1c(C(=O)Nc2ccc(F)cc2)sc2nc(-c3cccs3)cc(C(F)(F)F)c12`, the half-life was more than 30 min. `c1ccc(-c2ccc(CNc3nc(-c4ccccn4)nnc3-c3ccccc3)cc2)cc1` had a half-life of 7.73 min. In turn, `COc1ccc(NC(=O)c2[nH]c(C)c(C(C)=O)c2C)cc1S(=O)(=O)Nc1ccc(C#N)cc1` yielded a half-life of more than 30 min. Compound `OCc1ccc(-c2ccc(-c3ccc(CO)s3)o2)s1` registered a half-life of 6.18 min. The same measure for `CC[C@@H](CO)NC(=O)[C@@H]1C=C2c3cccc4c3c(cn4C)C[C@H]2N(C)C1`: more than 30 min. As for `CCN(CC)CCO[C@H]1CC[C@@]2(C)C(=CC[C@@H]3[C@@H]2CC[C@]2(C)C(=O)CC[C@@H]32)C1`, the half-life was 5.67 min. As for `CCCN1C(CC(C)C)=NS(=O)(=O)c2cc(NC(=O)c3cccs3)ccc21`, the half-life amounted to 4.56 min. The same measure for `CC1=Nc2cc(C(=O)NC3CCCC3)ccc2Sc2ccc(C)cc21`: 3.31 min; for `Cc1ccc(-n2c(=O)c3oc4ccccc4c3n(CC(=O)Nc3ccc(F)c(Cl)c3)c2=O)cc1C`: 29.6 min; for `CN1CC(CNC(=O)OCc2ccccc2)C[C@H]2c3cccc4c3c(cn4C)CC21` (some centres not stated): 14.3 min. The same measure for `COc1cccc(CNc2ccc(S(=O)(=O)Nc3cccc(-c4ccccc4)c3)cc2)c1O`: 17 min. As for `O=C(Nc1ncnc2sc3c(c12)CCCCC3)c1ccco1`, the half-life worked out at 2.3 min. The same measure for `COc1ccc(-c2cc3nccn3c(Nc3ncccc3C(N)=O)n2)cc1OC`: more than 30 min; for `COc1ccc(CN2CCc3c(c(=O)n4ncc(C(=O)N5CCN(c6ccccc6OC)CC5)c4n3C)C2)cc1`: 1.97 min. `Cc1cc(C)nc(NC(=S)N2CCN(Cc3ccc(C(F)(F)F)cc3)CC2)c1` displayed a half-life of more than 30 min.

For the compound `Cc1cc(NS(=O)(=O)c2ccc(N(C)C(=O)Cc3ccc(Cl)c(Cl)c3)cc2)no1`, the half-life is more than 30 min.

Regarding `Fc1ccc(CNc2cc3c(cn2)CN(Cc2ccncc2)CCN3)cc1`, the half-life was 15.9 min. `CC1=C(C(=O)Nc2nncs2)C(c2ccccc2Br)N=C(Nc2nc3ccccc3o2)N1` (configuration not stated) came in with a half-life of more than 30 min. The compound `Cc1ccc(-n2nc3c(=O)n(CCCC(=O)NCc4ccccc4F)nc(C)c3c2C)cc1` returned a half-life of 2.6 min. As to `c1ccc(CNc2cc3c(cn2)CN(Cc2cccnc2)CCN3)cc1`, the half-life came to 15 min.

The compound `O=S(=O)(Nc1ccccc1)c1ccc(NCc2ccc(Br)cc2O)cc1` returned a half-life of 2 min. Regarding `NC(=O)c1ccc(-c2nc3c([nH]2)CN(C(=O)CN2CCOCC2)CC3)cc1`, the half-life is more than 30 min.

Compound `O=[S+]([O-])(Nc1ccccc1)c1ccc(NCc2cccc(C(F)(F)F)c2Cl)cc1` had a half-life of 13 min. `CCc1ccc(-n2nc(C)c3c2NC(=O)CSC3c2ccccc2C)cc1` (configuration not stated) gave a half-life of 2.44 min. On to `Cn1cc(C2=C(c3cn(CCCSC(=N)N)c4ccccc34)C(=O)NC2=O)c2ccccc21`, for which the half-life worked out at 4.4 min. With `FC(F)(F)c1ccccc1-c1nc(NCc2cccc3ccccc23)c2ccccc2n1`, the half-life was 4.33 min.

`COc1cc(-c2c(C#N)c(N)nc3c2c(C)nn3-c2ccc(F)cc2)ccc1O` yielded a half-life of more than 30 min.

Compound `COc1c(NS(=O)(=O)c2ccc(C)cc2)cccc1C(=O)Nc1nc(-c2ccccc2)cs1` yielded a half-life of 9.7 min.

On to `Cc1ccc(S(=O)(=O)Nc2cnccc2C(=O)Nc2nc(-c3cccc(Cl)c3)cs2)cc1`, for which the half-life is more than 30 min.

`COc1cc(N2CCC(N3CCN(C)CC3)CC2)ccc1Nc1ncc(Cl)c(Nc2ccccc2P(C)(C)=O)n1` gave a half-life of more than 30 min. `CC(C)(C)c1ccc(SC2=NS(=O)(=O)c3ccccc32)cc1` returned a half-life of 1.74 min. For `Cc1ccc(C(=O)N2CCc3sc(C(=O)NC(C)c4ccccc4)cc3C2)cc1` (configuration not stated), the half-life worked out at 4.79 min. The result for `CCc1ccc(NC(=O)[C@H](Cc2c[nH]c3ccccc23)NC(=O)[C@@H]2Cc3ccccc3CN2)cc1` reads 2.32 min. The same measure for `COc1ccc(-c2ccc3nc(-c4ccc(SC)cc4)oc3c2)c(OC)c1OC`: 1.8 min; for `CN(C)CCNC(=O)c1nc2nc(-c3ccccc3)c(-c3cccc(Cl)c3)cc2n1C`: more than 30 min; for `COc1ccc2[nH]c(=O)c(-c3noc(-c4cccs4)n3)cc2c1`: 13 min.
